For data set [1], the system named is U2-OS cells. Briefly: Cell viability assay. In kind it is cell-based. The settings on record: for cell viability, etoposide co-treatment: 10 µM plus etoposide 50 µM, compared to etoposide alone; for cell viability, compound alone: 10 µM, 6, 24, and 48 hours, compared to DMSO. As for the experimental part: Fig.4: MW01 and MW05 reduce cell viability and increase p53-mediated apoptosis upon etoposide co-treatment. (A) Representative light microscopy images of U2-OS cells following treatment with DMSO, MW01 (10 µM), MW05 (10 µM), or etoposide (50 µM), or co-treatment with MW01 (10 µM) and etoposide (50 µM), or MW05 (10 µM) and etoposide (50 µM) at 24 (left) and 48 hours (right). (B) Quantification of cell viability using CellTiter-Fluor Cell Viability Assay at 6, 24, and 48 hours. Treatment with 0.1% SDS 30 minutes prior to assay was used as positive cell death control. (ns: not significant; *, **, ***: p<0.05, p<0.01, p<0.001). (C) U2-OS cells were treated with DMSO, MW01 (10 µM), MW 05 (10 µM), or etoposide (50 µM), or co-treated with MW01 (10 µM) and etoposide (50 µM), or MW05 (10 µM) and etoposide (50 µM), as indicated. After 24 hours, whole cell lysates were prepared and analyzed by Western blotting for p65 phosphorylation (S536), caspase-3 and cleaved caspase-3 (left panel) and for p53 and γH2AX) (right panel). Vinculin was used as loading control.
1×10^4 cells per well were seeded in a 96-well plate and incubated overnight. The day after, cells were treated with 10 µM of compounds under investigation, 50 µM Etoposide or 10 µM Cisplatin, alone or in combination, for appropriate time points. DMSO and 10% of Triton-X100 were used as negative and positive control respectively. Luminescent staining was performed using CellTiter-Glo Luminescent Cell Viability Assay (Promega, G7570), adding in each well a volume of CellTiter-Glo reagent equal to the volume of cell culture medium present into the well. After 1h of incubation at 37°C, luminescence was read by BioTek Cytation 1 Cell Imaging Multimode Reader (Agilent).
We hypothesized that due to the important function of the DNA double strand-induced IKK-NF-κB pathway as in anti-apoptotic signalling (Stilmann et al., 2009), both MW01 and MW05 should sensitize cells to DNA damaging agents, and therefore support their potential use to potentiate genotoxic therapies. To characterize the effect of MW01 and MW05 on cell viability, we treated cells with both compounds alone or in combination with etoposide to induce DNA lesions (Fig. 4A). […] The same effect in cell viability reduction was confirmed for MW01 and MW05 in co-treatment with cisplatin, another widely used chemotherapeutic drug. To investigate the underlying molecular causes of this phenotype, we looked at markers of NF-κB and p53 activation, DNA damage, and apoptosis after single and co-treatment with MW01, MW05, and etoposide (Fig 4C). MW01 and MW05 abrogated etoposide-stimulated p65 phosphorylation, thereby validating our inhibition of IKK and NF-κB activity. […]

Data set [2] can be described thus: HPLC of media supernatant from U2-OS cell culture (degradation). The conditions noted are these: 10µM. In kind it is physicochemical.

On to `COc1ccc2c(c1OC)c(=O)n1c3ccc(O)cc3c3ccnc2c31` [MW01, 5-Hydroxy-10,11-dimethoxy-9H-benzo[c]indolo[3,2,1-ij][1,5]naphthyridin-9-one], for which, in data set [1], the “cell viability, etoposide co-treatment” value is on record as “significantly reduced cell viability after 6 hours” and the “cell viability, compound alone” value is on record as “slightly reduced cell viability”. The “degradation in cell culture conditions” value in data set [2] is “minimal degradation”.
The corresponding values for `COc1ccc2cc3c(N)nn(C(=O)c4cccc(N(C)C)c4)c3nc2c1` [MW05, (3-Amino-7-methoxypyrazolo[3,4-b]quinolin-1-yl)-[3-(dimethylamino)phenyl]methanone] are “significant reduction after 24 hours”, “slightly reduced cell viability” and “minimal degradation”.

These data come from patent EP4467141A1, “PYRAZOLO-QUINOLINES AS SELECTIVE INHIBITORS OF GENOTOXIC STRESS-INDUCED IKK/NF- KB PATHWAYS FOR CANCER THERAPY” (Max-Delbrück-Centrum für Molekulare Medizin in der …, priority 2023, dated 2024).
